“Also recorded” adds a separate entry of the source.
Tests used:
human DCs = experiment: DCs maturation assay; assay type: cell-based
Experimental: Immature DCs were generated as described above (“Generation of Mo-DCs” section). DCs were cultured alone or with untreated or BTZ pretreated-AMO1 (5 nM) for 24 h. DCs alone were cultured i) without maturation stimuli; ii) with 50 ng/ml of TNFalpha (Millipore Sigma); or iii) with 5 nM of BTZ. After 24 h, cells were harvested and analyzed by flow cytometry using the following Abs: anti-CD83-APC (#551073), CD86-FITC (#555657) and 7-AAD from BD Biosciences and CD11c-BV650 (#563404, Biolegend). Dead cells were excluded by 7-AAD positivity, and CD83 and CD86 expression was evaluated on CD11c+ cells.

STC1 = experiment: Western blot of STC1; assay type: cell-based
U266 cells = experiment: Cytotoxicity assay (T cell lysis of MM cells); assay type: cell-based, human; conditions: T cells from BTZ co-culture, 24 h
Experimental: After coculture of HLA-matched DCs and T cells from healthy donors with either untreated or BTZ-treated U266 cells for 5 days, T cells were negatively selected using the Pan T cell Isolation Kit (Miltenyi Biotec) and plated in round bottom 96-well plates with naïve U266 cells pre-stained with CFSE dye (ThermoFisher Scientific) at different target:effector (T:E) ratios for 24 h in the presence of IL-2 (#130-097-74, Miltenyi Biotec). Then cells were 7AAD-stained, and detection of viable CFSE-gated cells was performed using BD LRSFortessa X-20 cytometer.

[1] = system: IFN response in 5TGM1 cells; experiment: Type-I IFN response in MM cells (qRT-PCR); assay type: cell-based, murine; conditions: 5TGM1 Sting^KO; BTZ 7.5 nM
Experimental: Total RNA from multiple myeloma cells was prepared with TRIzol™ (ThermoFisher Scientific) and RNA Clean and Concentrator™-5 kit (Zymo Research) following the product instructions. RNA integrity and quantity was assessed by NanoDrop Spectrophotometer (ThermoFisher Scientific). For analysis of mRNA expression, oligo-dT-primed cDNA was obtained using the High Capacity cDNA Reverse Transcription Kit (ThermoFisher Scientific), and used as template to quantify: human and murine IFNA1 (Hs03044218_g1, Mm03030145_gH), human and murine IFNB1 (Hs01077958_s1, Mm00439552_s1), human and murine CXCL9 (Hs00171065_ml, Mm00434946_ml), and human and murine GAPDH (Hs02786624_g1, Mm99999915_g1). Analysis was determined by RT-PCR using TaqMan®Fast Universal PCR Master Mix on a 7500 Fast Real-Time PCR System (ThermoFisher Scientific). Comparative RT-PCR was performed in triplicate. Relative expression was calculated using the comparative […] (Ct) method.

5TGM1 tumors = experiment: RNA-seq analysis from mouse tumors; assay type: in vivo; conditions: immunocompetent mice
Experimental: Tumors growing from both 5TGM1 WT or calrKO cells in C57BL/KaLwRijHsd mice treated with either PBS or BTZ (3/group) were harvested and used to extract RNA using the RNeasy® kit (Qiagen). After passing quality control, RNAseq was performed using Illumina NextSeq 500 Single-End 75 bp (SE75) and analyzed following the VIPER NGS analysis pipeline (Cornwell et al. (2018) BMC Bioinform. 19:135) comparing BTZ-treated mice vs PBS in each experimental setting. Listing of differentially expressed genes (DEGs) were applied to gene set enrichment analysis (GSEA) and Cytoscape (Bindea et al. (2009) Bioinform. 25:1091-1093; Bindea et al. (2013) Bioinform. 29:661-663) software to reveal biological pathways modulated by BTZ.
Tumors growing from both 5TGM1 WT or Calr^KO cells in C57BL/KaLwRijHsd mice treated with either PBS or BTZ (3/group) were harvested and used to extract RNA using the RNeasy kit (Qiagen). After passing quality control, RNAseq was performed using Illumina NextSeq 500 Single-End 75 bp (SE75) and analyzed following the VIPER NGS analysis pipeline (Cornwell et al. (2018) BMC Bioinformatics; 19(1):135), comparing BTZ-treated mice vs PBS in each experimental setting. […] Analysis of expression of human orthologs of these 90 genes in MM patients and correlation with patient clinical outcome was then analyzed as detailed below. […]

CC(C)C[C@H](NC(=O)[C@H](Cc1ccccc1)NC(=O)c1cnccn1)B(O)O [BTZ, bortezomib]
expression of CD83 and CD86 maturation markers on DCs (human DCs; 24 h co-culture with BTZ (5 nM) pretreated AMO1): higher expression of CD86/CD83 on cell surface; also recorded: increased expression of CD83 and CD86 maturation markers
expression of CD83 and CD86 maturation markers on DCs (human DCs; DCs with BTZ alone (5 nM), no MM cells): not triggered by either untreated multiple myeloma cells or BTZ alone
STC1 protein levels (STC1; GABARAP^KO cells after BTZ): intracellular levels of STC1 are even higher after BTZ treatment
STC1 protein levels (STC1; WT cells (5TGM1, AMO1) after BTZ): STC1 protein levels decrease in WT cells after BTZ treatment
lysis of MM cells by T cells isolated after co-culture (U266 cells): able to efficiently induce lysis of multiple myeloma cells
IFN response (Ifna1, Ifnb1 qRT-PCR) [1]: abrogation of IFN response after BTZ treatment
transcriptional changes in tumors (RNA-seq) (5TGM1 tumors; 5TGM1 Calr^KO tumors): decreased this effect
transcriptional changes in tumors (RNA-seq) (5TGM1 tumors; 5TGM1 WT tumors, two BTZ treatments 0.5 mg/kg): switched on a transcriptional program that is linked to the activation of an immune response; also recorded: consistent with activation of an immune response

Reference: US12109266B2, “Modulating gabarap to modulate immunogenic cell death” (Dana-Farber Cancer Institute, Inc., priority 2020, dated 2024)
